Reference: patent US7285546B2, “Cephalotaxanes, their method of preparation and their use in treatment of cancers, leukemias, parasites including those resistant to usual chemotherapeutic agents and as reversal agents” (Stragen Pharma S.A., priority 2000, dated 2007)
≈ marks a conversion by molar mass, not a printed value.

What follows are compounds tested on K562 cell line (assay: MTT test of structural analogues of harringtonines on K562 cell line). Conditions: Homo sapiens, K562, 72 h.
Format: cell-based
Method: Structural analogues of harringtonines described in this invention were tested on K562 cell line, derived from chronic myeloid leukemia cells in blastic transformation (bcr-abl positive). The cell line was purchased from ATCC (American Tissue Culture Collection) and grown in RPMI medium supplemented with 10% heat-inactivated fetal calf serum, 2 mmol/L glutamine, […] penicillin and […] streptomycin. All tested products were initially dissolved in […] (pH=2), supplemented with ultrasound treatment during 1 h. Working concentrations were made by dilution in culture medium (pH around 7). Cells in exponential growth phase were placed into 96-microwell plates in concentration 3×10^4/mL (total volume 200 μL/well) and incubated with drugs for 72 h at 37° C. in 5% CO2 humidified atmosphere. Following incubation, 2 μL of MTT solution (Sigma, St. Louis, Mo.) was added to each well. During the following 6 h of incubation at 37° C., the purple formazan product was formed by conversion of the yellow MTT salt in the mitochondria of the viable cells. The resulting precipitate was dissolved in DMSO and the amount of converted MTT was quantified in an ELISA reader (MR 5000, Dynatech). Each product was tested in triplicate (3×8 wells). Every test contained at least one plate with HHT as control, added in the same concentration as the tested products.

Compound	IC50 [µg/mL]
COC1=C[C@@]23CCCN2CCc2cc4c(cc2[C@@H]3C1OC(=O)[C@@](O)(CCCC(C)(C)O)CC(=O)OCC1CC1)OCO4 (stereo partly drawn) [Example 49, (2′R)-4′-cyclopropylmethyl-4′-demethyl-homoharringtonine]	0.07 (≈ 0.12 µM)
COC1=C[C@@]23CCCN2CCc2cc4c(cc2[C@@H]3C1OC(=O)[C@@](O)(CCCC(C)(C)O)CC(=O)SC(C)C)OCO4 (stereo partly drawn) [Example 34, (2′R)-4′-isopropylthio-4′-demethoxy-homoharringtonine]	0.05 (≈ 0.0848 µM)
CC=CCOC(=O)C[C@](O)(CCC(C)(C)O)C(=O)OC1C(OC)=C[C@@]23CCCN2CCc2cc4c(cc2[C@H]13)OCO4 (stereo partly drawn) [Example 55, (2′R)-4′-(but-2-enyl)-4′-demethyl-harringtonine]	0.014 (≈ 0.0245 µM)
CCCCCCCOC(=O)C[C@](O)(CCCC(C)(C)O)C(=O)OC1C(OC)=C[C@@]23CCCN2CCc2cc4c(cc2[C@H]13)OCO4 (stereo partly drawn) [Example 66, (2′R)-4′-heptyl-4′-demethyl-homoharringtonine]	0.003 (≈ 0.00476 µM)
COC1=C[C@@]23CCCN2CCc2cc4c(cc2[C@@H]3C1OC(=O)[C@@](O)(CCCC(C)(C)O)CC(=O)OCC=C(C)C)OCO4 (stereo partly drawn) [Example 39, (2′R)-4′-(3-methyl-2-butenyl)-4′-demethyl-homoharringtonine]	0.028 (≈ 0.0467 µM)
COC1=C[C@@]23CCCN2CCc2cc4c(cc2[C@@H]3C1OC(=O)[C@@](O)(CCCC(C)(C)O)CC(=O)SC(C)(C)C)OCO4 (stereo partly drawn) [Example 36, (2′R)-4′-tert-butylthio-4′-demethoxy-homoharringtonine]	0.02 (≈ 0.0331 µM)
C=CCOC(=O)C[C@](O)(CCCC(C)(C)O)C(=O)OC1C(OC)=C[C@@]23CCCN2CCc2cc4c(cc2[C@H]13)OCO4 (stereo partly drawn) [Example 40, (2′R)-4′-(2-propenyl)-4′-demethyl-homoharringtonine]	0.0145 (≈ 0.0254 µM)
COC1=C[C@@]23CCCN2CCc2cc4c(cc2[C@@H]3C1OC(=O)[C@@](O)(CCCC(C)(C)O)CC(=O)OCc1cccs1)OCO4 (stereo partly drawn) [Example 82, (2′R)-4′-(2-thiophenemethoxy)-4′-demethyl-homoharringtonine]	0.005 (≈ 0.00796 µM)
COC1=C[C@@]23CCCN2CCc2cc4c(cc2[C@@H]3C1OC(=O)[C@@](O)(CCCC(C)(C)O)CC(=O)OCC(F)(F)F)OCO4 (stereo partly drawn) [Example 48, (2′R)-4′-(2,2,2-trifluoroethyl)-4′-demethyl-homoharringtonine]	0.1 (≈ 0.163 µM)
CCCCCCOC(=O)C[C@](O)(CCCC(C)(C)O)C(=O)OC1C(OC)=C[C@@]23CCCN2CCc2cc4c(cc2[C@H]13)OCO4 (stereo partly drawn) [Example 54, (2′R)-4′-hexyl-4′-demethyl-homoharringtonine]	0.005 (≈ 0.00812 µM)
COC1=C[C@@]23CCCN2CCc2cc4c(cc2[C@@H]3C1OC(=O)[C@@](O)(CCCC(C)(C)O)CC(=O)OCc1ccc([N+](=O)[O-])cc1)OCO4 (stereo partly drawn) [Example 85, (2′R)-4′-p-nitrobenzyloxy-4′-demethyl-homoharringtonine]	0.018 (≈ 0.027 µM)
COC(=O)C[C@](O)(CCC(C)(C)O)C(=O)O[C@@H]1C(OC)=C[C@]23CCCN2CCc2cc4c(cc2[C@H]13)OCO4 [HARRINGTONINE (HHT), harringtonine, reference compound]	0.03 (≈ 0.0564 µM)
COC1=C[C@@]23CCCN2CCc2cc4c(cc2[C@@H]3C1OC(=O)[C@@](O)(CCCC(C)(C)O)CC(=O)OCc1ccco1)OCO4 (stereo partly drawn) [Example 83, (2′R)-4′-furfuryl-4′-demethyl-homoharringtonine]	0.003 (≈ 0.0049 µM)
COC1=C[C@@]23CCCN2CCc2cc4c(cc2[C@@H]3C1OC(=O)[C@@](O)(CCCC(C)(C)O)CC(=O)OCCOCc1ccccc1)OCO4 (stereo partly drawn) [Example 80, (2′R)-4′-(2-benzyloxyethoxy)-4′-demethyl-homoharringtonine]	0.025 (≈ 0.0375 µM)
COCCOC(=O)C[C@](O)(CCCC(C)(C)O)C(=O)OC1C(OC)=C[C@@]23CCCN2CCc2cc4c(cc2[C@H]13)OCO4 (stereo partly drawn) [Example 78, (2′R)-4′-(2-methoxyethoxy)-4′-demethyl-homoharringtonine]	0.012 (≈ 0.0203 µM)
COC1=C[C@@]23CCCN2CCc2cc4c(cc2[C@@H]3C1OC(=O)[C@@](O)(CCCC(C)(C)O)CC(=O)SC)OCO4 (stereo partly drawn) [Example 30, (2′R)-4′-methylthio-4′-demethoxy-homoharringtonine]	0.05 (≈ 0.089 µM)
COC1=C[C@@]23CCCN2CCc2cc4c(cc2[C@@H]3C1OC(=O)[C@@](O)(CCCC(C)(C)O)CC(=O)OCc1ccc(C)cc1)OCO4 (stereo partly drawn) [Example 72, (2′R)-4′-p-methylbenzyl-4′-demethyl-homoharringtonine]	0.006 (≈ 0.00944 µM)
CCC(C)COC(=O)C[C@](O)(CCCC(C)(C)O)C(=O)OC1C(OC)=C[C@@]23CCCN2CCc2cc4c(cc2[C@H]13)OCO4 (stereo partly drawn) [Example 69, (2′R)-4′-(methyl-2-butyl)-4′-demethyl-homoharringtonine]	0.029 (≈ 0.0482 µM)
COC1=C[C@@]23CCCN2CCc2cc4c(cc2[C@@H]3C1OC(=O)[C@@](O)(CCCC(C)(C)O)CC(=O)OCc1cccc(C)c1)OCO4 (stereo partly drawn) [Example 73, (2′R)-4′-m-methylbenzyl-4′-demethyl-homoharringtonine]	0.004 (≈ 0.00629 µM)
CCCOC(=O)C[C@](O)(CCCC(C)(C)O)C(=O)OC1C(OC)=C[C@@]23CCCN2CCc2cc4c(cc2[C@H]13)OCO4 (stereo partly drawn) [Example 51, (2′R)-4′-propyl-4′-demethyl-homoharringtonine]	0.0225 (≈ 0.0392 µM)
COC1=C[C@]23CCCN2CCc2cc4c(cc2[C@@H]3C1OC(=O)[C@@](O)(CCCC(C)(C)O)CC(=O)OC(C)C)OCO4 (stereo partly drawn) [Example 27, (2′R)-4′-isopropyl-4′-demethyl-homoharringtonine]	0.08 (≈ 0.139 µM)
COC1=C[C@]23CCCN2CCc2cc4c(cc2[C@@H]3[C@@H]1O)OCO4 [CEPHALOTAXINE (CTX), cephalotaxine, reference compound]	2 (≈ 6.34 µM)
COC1=C[C@@]23CCCN2CCc2cc4c(cc2[C@@H]3C1OC(=O)[C@@](O)(CCCC(C)(C)O)CC(=O)OCc1ccc(OC)cc1)OCO4 (stereo partly drawn) [Example 86, (2′R)-4′-p-methoxybenzyloxy-4′-demethyl-homoharringtonine]	0.02 (≈ 0.0307 µM)
CCCCCCCCOC(=O)C[C@](O)(CCCC(C)(C)O)C(=O)OC1C(OC)=C[C@@]23CCCN2CCc2cc4c(cc2[C@H]13)OCO4 (stereo partly drawn) [Example 67, (2′R)-4′-octyl-4′-demethyl-homoharringtonine]	0.009 (≈ 0.014 µM)
COC1=C[C@@]23CCCN2CCc2cc4c(cc2[C@@H]3C1OC(=O)[C@@](O)(CCCC(C)(C)O)CC(=O)OCC(C)C)OCO4 (stereo partly drawn) [Example 52, (2′R)-4′-isobutyl-4′-demethyl-homoharringtonine]	0.024 (≈ 0.0408 µM)
COC1=C[C@@]23CCCN2CCc2cc4c(cc2[C@@H]3C1OC(=O)[C@@](O)(CCCC(C)(C)O)CC(=O)OCc1cccc2ccccc12)OCO4 (stereo partly drawn) [Example 81, (2′R)-4′-(1-naphtalenemethoxy)-4′-demethyl-homoharringtonine]	0.008 (≈ 0.0119 µM)
COC(=O)C[C@](O)(CCC(C)(C)F)C(=O)OC1C(OC)=C[C@@]23CCCN2CCc2cc4c(cc2[C@H]13)OCO4 (stereo partly drawn) [Example 59, (2′R)-3″-Fluoro-3″-deoxy-harringtonine]	0.0135 (≈ 0.0253 µM)
CCCCCCOC(=O)C[C@](O)(CCC(C)C)C(=O)OC1C(OC)=C[C@@]23CCCN2CCc2cc4c(cc2[C@H]13)OCO4 (stereo partly shown) [Example 84, (2′ R)-4′-hexanyloxy-4′-demethyldeoxyharringtonine]	0.007 (≈ 0.012 µM)
COC1=C[C@@]23CCCN2CCc2cc4c(cc2[C@@H]3C1OC(=O)[C@@](O)(CCCC(C)(C)O)CC(=O)OCc1ccccc1OC)OCO4 (stereo partly drawn) [Example 90, (2′R)-4′-o-methoxybenzyloxy-4′-demethyl-homoharringtonine]	0.027 (≈ 0.0414 µM)
CCOC(=O)C[C@](O)(CCCC(C)(C)O)C(=O)OC1C(OC)=C[C@@]23CCCN2CCc2cc4c(cc2[C@H]13)OCO4 (stereo partly drawn) [Example 25, (2′R)-4′-ethyl-4′-demethyl-homoharringtonine]	0.041 (≈ 0.0733 µM)

Same assay, conditions: Homo sapiens; K562 cell line, 72 h incubation, MTT; read-out: IC50

IC50 [µg/mL]	Compound
0.025 (≈ 0.0456 µM)	[2H]C([2H])([2H])OC(=O)C[C@](O)(CCCC(C)(C)O)C(=O)OC1C(OC)=C[C@@]23CCCN2CCc2cc4c(cc2[C@H]13)OCO4 (stereo partly drawn) [Example 75, (2′R)-(4′-^2H3)homoharringtonine]
0.014 (≈ 0.0257 µM)	COC(=O)C[C@](O)(CCCC(C)(C)O)C(=O)O[C@@H]1C(OC)=C[C@]23CCCN2CCc2cc4c(cc2[C@H]13)OCO4 [HOMOHARRINGTONINE, homoharringtonine, reference compound]
0.018 (≈ 0.0329 µM)	[2H]COC(=O)C[C@](O)(CCCC(C)(C)O)C(=O)OC1C(OC)=C[C@@]23CCCN2CCc2cc4c(cc2[C@H]13)OCO4 (stereo partly drawn) [Example 76, (2′R)-(4′-^2H)homoharringtonine]

Same assay, conditions: K562 cell line, 72 h incubation, MTT

Compound	IC50 [µg/mL]
CC=CCOC(=O)C[C@](O)(CCCC(C)(C)O)C(=O)O[C@@H]1C(OC)=C[C@]23CCCN2CCc2cc4c(cc2[C@H]13)OCO4 [Example 37, (2′R)-4′-(but-2-enyl)-4′-demethyl-homoharringtonine]	0.0125 (≈ 0.0213 µM)
C=C(C)COC(=O)C[C@](O)(CCCC(C)(C)O)C(=O)O[C@@H]1C(OC)=C[C@]23CCCN2CCc2cc4c(cc2[C@H]13)OCO4 [Example 41, (2′R)-4′-(2-methyl-2-propenyl)-4′-demethyl-homoharringtonine]	0.0085 (≈ 0.0145 µM)
4-(hexa-2,4-dienyl) (2R)-2-hydroxy-2-(4-hydroxy-4-methylpentyl)succinate of (−)-drupacine [Example 57]	0.009
CC=CCCCOC(=O)C[C@](O)(CCCC(C)(C)O)C(=O)O[C@@H]1C(OC)=C[C@]23CCCN2CCc2cc4c(cc2[C@H]13)OCO4 [Example 53, (2′R)-4′-(hex-4-enyl)-4′-demethyl-homoharringtonine]	0.0085 (≈ 0.0138 µM)
